The values that follow come from publication PMC6171243, “Suppression of lung cancer progression by isoliquiritigenin through its metabolite 2, 4, 2’, 4’-Tetrahydroxychalcone” (Journal of Experimental & Clinical Cancer Research : CR, 2018).

The assay has as its target Src (Homo sapiens, UniProt P12931). As to the kind of experiment: cell-free ADP-Glo Src kinase assay (Promega). It is filed as biochemical. (ADP-Glo turns the ADP formed in a reaction into a luminescent signal.)

Broadly, the IC50 is the concentration that inhibits the measured activity by half. The low end stands for greater potency, the high end for weaker potency.

Sequence of Src (P12931 2-536): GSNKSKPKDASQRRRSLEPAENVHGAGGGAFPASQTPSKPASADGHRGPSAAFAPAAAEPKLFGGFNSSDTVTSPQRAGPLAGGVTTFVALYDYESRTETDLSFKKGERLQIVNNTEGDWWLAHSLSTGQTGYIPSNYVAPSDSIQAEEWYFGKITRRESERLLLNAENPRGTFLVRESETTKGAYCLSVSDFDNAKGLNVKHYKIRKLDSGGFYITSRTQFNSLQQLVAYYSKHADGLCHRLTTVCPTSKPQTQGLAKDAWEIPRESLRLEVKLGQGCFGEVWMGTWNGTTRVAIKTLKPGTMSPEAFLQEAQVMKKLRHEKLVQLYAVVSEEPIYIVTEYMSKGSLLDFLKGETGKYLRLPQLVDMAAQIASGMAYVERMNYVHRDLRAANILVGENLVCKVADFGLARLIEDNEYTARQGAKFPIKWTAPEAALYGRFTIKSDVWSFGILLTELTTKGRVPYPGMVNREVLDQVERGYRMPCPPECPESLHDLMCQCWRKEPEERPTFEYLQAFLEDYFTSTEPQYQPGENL

The compound `O=C(/C=C/c1ccc(O)cc1O)c1ccc(O)cc1O` [THC, 2,4, 2′, 4′-tetrahydroxychalcone] gave a concentration for half-maximal inhibition (IC50) of 1.44 µM.
